Measured values as given in patent US9420780B2, “Composition, method for producing the composition, and phytosanitary formulation containing same” (RHODIA OPERATIONS, priority 2011, dated 2016).

Assay: Solubility of agrochemical active ingredients in the solvent compositions: visual observation at 25° C., at 0° C. for 7 days (CIPAC MT39), and at 0° C. with nucleation
Assay type: physicochemical
Conditions: tebuconazole 300 g/L EC
Method: 1. Description of the Tests Performed: The formulations were prepared by dilution of various active ingredients reported in the table here below in the compositions 1 to 4 (solvents according to the invention) synthesised here above: a) Visual observation at 25° C.: the appearance of the formulation is noted and the possible presence of crystals is eventually recorded. b) Visual observation at 0° C.: the formulation is placed for a period of 7 days at 0° C. and the appearance of the formulation is noted and the possible presence of crystals is eventually recorded (CIPAC test MT39). c) Visual observation at 0° C. with nucleation (for introduction into the liquid of a crystal of the pure active ingredient): […] The appearance of the formulation is noted and the possible presence of crystals or growth of the crystal introduced is eventually recorded. The active ingredients used are commercially available.

State of the solution at +25° C.: Clear
State of the solution at 0° C. (7 days at 0° C.): Clear
State of the solution at 0° C. after seeding (crystal introduced, further 7 days at 0° C.): Crystal
Structure (SMILES): CN1CCCC1=O [Solvent 6, N-methylpyrrolidone]
